Data published in ChEMBL document CHEMBL4342421, “Current scenario of tetrazole hybrids for antibacterial activity” (Eur J Med Chem, 2019).
In brackets after ≈: the same amount, converted by molar mass.

What was measured:
[1] = system: Bacillus subtilis; assay: Antimicrobial activity against Bacillus subtilis assessed as zone of inhibition at 100 ug/ml; format: functional; details: read-out: IZ
[2] = system: Staphylococcus aureus; assay: Antimicrobial activity against Staphylococcus aureus assessed as zone of inhibition at 100 ug/ml; format: functional; details: read-out: IZ
[3] = system: Streptococcus; assay: Antimicrobial activity against Streptococcus assessed as zone of inhibition at 100 ug/ml; format: functional; details: read-out: IZ
[4] = system: Escherichia coli; assay: Antimicrobial activity against Escherichia coli assessed as zone of inhibition at 100 ug/ml; format: functional; details: read-out: IZ
[5] = system: Prescottella equi; assay: Antimicrobial activity against Rhodococcus equi; format: functional; details: Rhodococcus (subgen. Prescottella) equi
[6] = system: Streptococcus pneumoniae; assay: Antimicrobial activity against Streptococcus pneumoniae; format: functional
[7] = system: Proteus mirabilis; assay: Antimicrobial activity against Proteus mirabilis; format: functional
[8] = system: Bacillus subtilis; assay: Antimicrobial activity against Bacillus subtilis assessed as zone of inhibition at 5 mg/ml after 24 to 48 hrs by well diffusion method; format: functional; details: read-out: IZ
[9] = system: Bacillus thuringiensis; assay: Antimicrobial activity against Bacillus thuringiensis; format: functional
[10] = system: Proteus vulgaris; assay: Antimicrobial activity against Proteus vulgaris; format: functional
[11] = system: Staphylococcus aureus; assay: Antimicrobial activity against Staphylococcus aureus assessed as zone of inhibition at 5 mg/ml after 24 to 48 hrs by well diffusion method; format: functional; details: read-out: IZ
[12] = system: Salmonella typhimurium; assay: Antimicrobial activity against Salmonella typhimurium; format: functional, Salmonella enterica subsp. enterica serovar Typhimurium; details: Salmonella enterica
[13] = system: Staphylococcus aureus; assay: Antimicrobial activity against Staphylococcus aureus ATCC 25923 assessed as zone of inhibition at 100 ug/ml after 24 hrs by disc diffusion method; format: functional; details: ATCC 25923, 24 h, read-out: IZ
[14] = system: Bacillus subtilis; assay: Antimicrobial activity against Bacillus subtilis; format: functional
[15] = system: Escherichia coli; assay: Potency index, ratio of ciprofloxacin MIC to test compound MIC for antimicrobial activity against Escherichia coli; format: functional
[16] = system: Escherichia coli; assay: Antimicrobial activity against Escherichia coli; format: functional
[17] = system: Bacillus subtilis; assay: Potency index, ratio of ciprofloxacin MIC to test compound MIC for antimicrobial activity against Bacillus subtilis; format: functional
[18] = system: Staphylococcus aureus; assay: Antimicrobial activity against Staphylococcus aureus; format: functional
[19] = system: Candida albicans; assay: Antifungal activity against Candida albicans; format: functional
[20] = system: Staphylococcus epidermidis; assay: Antimicrobial activity against Staphylococcus epidermidis; format: functional
[21] = system: Pseudomonas aeruginosa; assay: Antimicrobial activity against Pseudomonas aeruginosa; format: functional
[22] = system: Aspergillus niger; assay: Antifungal activity against Aspergillus niger; format: functional
[23] = system: Klebsiella pneumoniae; assay: Antimicrobial activity against Klebsiella pneumoniae; format: functional
[24] = system: Listeria monocytogenes; assay: Antimicrobial activity against Listeria monocytogenes; format: functional
[25] = system: Nakaseomyces glabratus; assay: Antifungal activity against Candida glabrata; format: functional
[26] = system: Enterococcus faecalis; assay: Antimicrobial activity against Enterococcus faecalis; format: functional
[27] = system: Candida tropicalis; assay: Antifungal activity against Candida tropicalis; format: functional
[28] = system: Streptococcus pyogenes; assay: Antimicrobial activity against Streptococcus pyogenes; format: functional

SMILES	MIC [7] [µg/mL]	MIC [10] [µg/mL]	MIC [12] [µg/mL]	MIC [14] [µg/mL]	MIC [16] [µg/mL]	MIC [18] [µg/mL]	MIC [19] [µg/mL]	MIC [21] [µg/mL]	MIC [23] [µg/mL]	other results
Clc1cccc(-c2nnc(SCc3ccc(-c4ccccc4-c4nn[nH]n4)cc3)o2)c1										zone of inhibition at 100 µg/mL [1]: 20 to 27 mm; zone of inhibition at 100 µg/mL [2]: 20 to 27 mm; zone of inhibition at 100 µg/mL [3]: 20 to 27 mm; zone of inhibition at 100 µg/mL [4]: 20 to 27 mm
COc1cccc(OC)c1/C=C1\SC(=O)N(Cc2ccc(-c3ccccc3-c3nnn[nH]3)cc2)C1=O				8.41 (≈ 16.8 µM)	8.58 (≈ 17.2 µM)					Ratio [15]: >2.91; Ratio [17]: >2.91
COc1ccc(C2=NN(C(N)=S)C(c3cc4ccc(C)cc4n4nnnc34)C2)cc1 (stereo unspecified)	3.12 to 25 (≈ 7.49 to 59.9 µM)				3.12 to 25 (≈ 7.49 to 59.9 µM)	3.12 to 25 (≈ 7.49 to 59.9 µM)	3.12 to 25 (≈ 7.49 to 59.9 µM)	3.12 to 25 (≈ 7.49 to 59.9 µM)		MIC [20]: 3.12 to 25 µg/mL (≈ 7.49 to 59.9 µM); MIC [22]: 3.12 to 25 µg/mL (≈ 7.49 to 59.9 µM)
O=C(O)c1cn(C2CC2)c2cc(N3CCN(C(=O)Cn4nnnc4S)CC3)c(F)cc2c1=O		2 to 128 (≈ 4.22 to 270 µM)				2 to 128 (≈ 4.22 to 270 µM)			2 to 128 (≈ 4.22 to 270 µM)	MIC [28]: 2 to 128 µg/mL (≈ 4.22 to 270 µM)

The next lines start with results.

MIC [7] [µg/mL]	MIC [10] [µg/mL]	MIC [12] [µg/mL]	MIC [14] [µg/mL]	MIC [16] [µg/mL]	MIC [18] [µg/mL]	MIC [19] [µg/mL]	MIC [21] [µg/mL]	SMILES	MIC [23] [µg/mL]	other results
0.063 to 8 (≈ 0.188 to 23.9 µM)	0.063 to 8 (≈ 0.188 to 23.9 µM)	0.063 to 8 (≈ 0.188 to 23.9 µM)	0.063 to 8 (≈ 0.188 to 23.9 µM)					CC1(C)S[C@@H]2[C@H](NC(=O)Cc3ccccc3)C(=O)N2[C@H]1C(=O)O [PENICILLIN G]		MIC [5]: 0.063 to 8 µg/mL (≈ 0.188 to 23.9 µM); MIC [6]: 0.063 to 8 µg/mL (≈ 0.188 to 23.9 µM); zone of inhibition at 5000 µg/mL [8]: 26.2 mm; MIC [9]: 0.063 to 8 µg/mL (≈ 0.188 to 23.9 µM); zone of inhibition at 5000 µg/mL [11]: 24.6 mm; zone of inhibition at 100 µg/mL [13]: 10 to 24 mm
	12.5 to 400 (≈ 24.5 to 784 µM)	12.5 to 400 (≈ 24.5 to 784 µM)	12.5 to 400 (≈ 24.5 to 784 µM)	12.5 to 400 (≈ 24.5 to 784 µM)	12.5 to 400 (≈ 24.5 to 784 µM)	12.5 to 400 (≈ 24.5 to 784 µM)	12.5 to 400 (≈ 24.5 to 784 µM)	Cn1c(-c2ccc(NC(=O)CSc3nnnn3-c3ccccc3)cc2)nc2cc(Cl)c(Cl)cc21	12.5 to 400 (≈ 24.5 to 784 µM)	MIC [24]: 12.5 to 400 µg/mL (≈ 24.5 to 784 µM); MIC [25]: 12.5 to 400 µg/mL (≈ 24.5 to 784 µM); MIC [26]: 12.5 to 400 µg/mL (≈ 24.5 to 784 µM); MIC [27]: 12.5 to 400 µg/mL (≈ 24.5 to 784 µM)
